Test results taken from article PMC10451623 (Antioxidants, 2023).

Experiments:
human PPARδ = molecular target: T1, human PPARδ (Homo sapiens, UniProt Q03181); experiment: Transactivation assay (GAL4–hPPARδ-LBD chimera, luciferase reporter, COS-7 cells); type: cell-based; conditions: for Emax: COS-7, read-out: Efficacy, PPARδ transactivation (% of the maximal response); for EC50: COS-7 cells, GAL4–hPPARδ-LBD
T1 construct: expressed in transfected cells; host or cells: COS-7
T1 sequence (Q03181 211-439 limits assumed): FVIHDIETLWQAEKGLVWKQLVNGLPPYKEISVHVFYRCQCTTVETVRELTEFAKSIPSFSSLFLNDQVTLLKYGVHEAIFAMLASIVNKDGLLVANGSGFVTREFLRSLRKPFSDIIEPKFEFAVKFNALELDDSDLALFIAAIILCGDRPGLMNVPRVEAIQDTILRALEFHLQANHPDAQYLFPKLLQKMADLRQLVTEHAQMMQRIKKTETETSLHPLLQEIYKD
Method: The pSG5-GAL–hPPARα/δ/γ plasmids express fusion proteins comprising the yeast transcription factor GAL4 DNA-binding domain and each of the human PPARα/δ/γ-LBDs. The MH100(UAS)×4-tk-Luc plasmid contains four copies of the MH100 GAL4 binding site and the Firefly luciferase gene. The cells were transfected with those plasmids and were treated with various PPAR ligands, and both Firefly and Renilla luciferase activities were measured using the Dual-Glo Luciferase Assay System (Promega, Madison, WI, USA) as described previously. […] GW1929 was purchased from Sigma-Aldrich (St. Louis, MO, USA).
For the undertaking of the comparison of the potency, efficacy, and selectivity of the five PPAR ligands (Figure 1A) against the PPAR subtypes, we evaluated their PPARα/δ/γ activation using three different methods: a cell-based transactivation assay, a coactivator recruitment assay, and a thermal stability assay, as we previously performed on three fibrates (namely, bezafibrate, fenofibric acid, and pemafibrate). The cell-based transactivation assay utilizing the Gal4–PPAR-LBD system is the most widely used method for the determination of PPAR activation by certain ligands, although their responses depend on the used cell types in which several coactivators with altered functions are differentially expressed.
Figure 1 LBD-mediated human PPARα/δ/γ transactivation by PPAR ligands. (A) Chemical structures of the five PPAR ligands used in this study. […] Data are presented as the mean ± standard error (SE) of three independent experiments with duplicate samples.

PPARγ-LBD = molecular target: T2, PPARγ-LBD (Homo sapiens, UniProt P37231); experiment: TR-FRET SRC1 coactivator recruitment assay; type: biochemical; set-up: PPARγ-LBD (amino acids 203–477 in isoform 1); made in house; host or cells: Rosetta (DE3) pLysS (E. coli); conditions: SRC1 peptide, read-out: EC50, SRC1 recruitment to PPARγ-LBD
T2 sequence (P37231 203-477 isoform P37231-2): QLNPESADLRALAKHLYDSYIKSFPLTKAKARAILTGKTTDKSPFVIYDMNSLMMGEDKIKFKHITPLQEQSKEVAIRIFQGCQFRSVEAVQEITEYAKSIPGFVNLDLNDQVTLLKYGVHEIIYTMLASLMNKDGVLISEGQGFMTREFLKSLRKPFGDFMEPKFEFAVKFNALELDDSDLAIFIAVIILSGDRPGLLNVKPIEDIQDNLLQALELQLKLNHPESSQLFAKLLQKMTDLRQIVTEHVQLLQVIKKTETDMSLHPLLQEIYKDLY
Method: Subsequently, 5 µL of 4 nM Eu-W1024-labeled anti-6×His antibody/80 nM ULight-Streptavidin (PerkinElmer) was added to each well, and the microplate was incubated in the dark for 2 h, at room temperature. […] The nonlinear fitting and the calculation of the EC50 were performed using the Prism 9 software (GraphPad, San Diego, CA, USA).
The ligand-bound activated forms of PPARs are stabilized by associations with specific coactivators, thereby enabling the regulation of specific gene expression.
Figure 2 TR-FRET-based LBD-mediated human PPARα/δ/γ coactivator recruitment assay. […] Data are presented as the mean ± SE of three or four independent experiments with duplicate samples, and the calculated EC50 values are shown.

| Emax (human PPARδ) [%] | EC50 (PPARγ-LBD) [µM] | EC50 (human PPARδ) [µM] | SMILES |
| --- | --- | --- | --- |
| 14.8 | 11.8 |  | CSc1ccc(C(=O)/C=C/c2cc(C)c(OC(C)(C)C(=O)O)c(C)c2)cc1 [elafibranor] |
| 13.3 | 7.57 | 0.398 | O=C(O)CCCc1cc2cc(Cl)ccc2n1S(=O)(=O)c1ccc2ncsc2c1 [lanifibranor] |
| 6 | 3.44 | > 10 | CCO[C@@H](Cc1ccc(OCCn2c(C)ccc2-c2ccc(SC)cc2)cc1)C(=O)O [saroglitazar] |
| 99.3 | > 300 | 0.0202 | CCO[C@H](COc1ccc(C(F)(F)F)cc1)CSc1ccc(OCC(=O)O)c(C)c1 [seladelpar] |
